The record followed here is patent US20100210649A1, “PYRIDAZINONES AND FURAN-CONTAINING COMPOUNDS” (Sloan-Kettering Institute for Cancer Research, priority 2006, published 2010).

Like-named read-outs stand apart in the source and are kept apart here.

What all share (assay type): cell-based, human
The test system of one assay is H1650. The experiment in a line: Non Small Cell Lung Cancer proliferation assay (Alamar Blue reduction), H1650. The conditions noted are these: primary screening, 10 μM compound in 1% DMSO (v/v); for inhibition at 10 µM: Homo sapiens, NCI-H1650. On the procedure: (§1) These cells have a doubling time of 1-2 days. All cell types are adherent and grow in colonies. The cells should be kept at a density between 50,000 cells/mL -500,000 cells/mL to provide for optimum growth and adequate nutrition. The cell line should be maintained at 37° C. in a humidified atmosphere with 5% CO2 in a sterile cell culture incubator.
(§2) Non Small Cell Lung Cancer Proliferation Assay.
(§3) High Controls for this assay are made by treating Non Small Cell Lung Cancer cells with 5 ul of 10% DMSO. [Final concentration in this assay is 1% DMSO].
(§4) Important Note: All compounds for testing in this assay should be done at the final concentration of 1% DMSO.
(§5) After addition, the cells are placed in cell culture incubator at 37° C. for 48 hours for complete treatment.
(§6) After drug treatment, cytotoxicity is measured by Alamar Blue reduction.
(§7) The cells are incubated for 48 hours at 37° C. to complete the Alamar Blue reduction.
(§8) The final step in the assay is to measure the amount of Alamar Blue reduction. […] The Alamar Blue fluorescence is measured at an excitation of 530 nm and emission of 590 nm.
(§9) For the NSCLC project, the cell based assay was screened against a small molecule library of approximately 200,000 compounds. The compound library is stored in our automated robotic freezer (Biophile) at −20° C. in 100% DMSO. Compound freeze and thaw cycles are kept to a minimum. […] This assay was performed on a fully automated linear track robotic platform (CRS F3 Robot System, Thermo Electron Corp., Ontario, Canada) utilizing several integrated peripherals for plate handling, liquid dispensing, and readout detection. […] The microplates are then placed at 37° C. for 48 hours to complete treatment of cells with compounds. Next, 5 ul of alamar blue was added using a liquid dispenser (Flexprop Precision Dispenser, Perkin Elmer, Mass., USA) and incubated for 48 hours at 37° C. The alamar blue prompt fluorescence was measured on Victor V (Victor^3 V, Perkin Elmer, Mass., USA) and output data files were loaded into ORIS (Oncology Research Informatics System, MSKCC, NY, USA), a screening data acquisition and analysis platform.
(§10) The dose response studies were done with the following standard procedure. First, the cells were counted and dispensed at 250 cells/well into 384-well microplates with compound. The cells were incubated for 48 hours at 37 C to complete treatment, and then alamar blue was added for an additional 48 hours. Finally, alamar blue reduction was measured and the data was loaded into ORIS, our data screening acquisition platform.
A general note: Alamar Blue is a resazurin reagent that responds to reducing activity.

In the next assay the test system is H1975. Nature of the assay: Non Small Cell Lung Cancer proliferation assay (Alamar Blue reduction), H1975. The conditions noted are these: primary screening, 10 μM compound in 1% DMSO (v/v); for inhibition at 10 µM: Homo sapiens, NCI-H1975. The protocol:
as §1, §2, §3, §4, §5, §6, §7, §8, §9, §10

Another assay relates to H2030. The experiment in a line: Non Small Cell Lung Cancer proliferation assay (Alamar Blue reduction), H2030. The conditions noted are these: primary screening, 10 μM compound in 1% DMSO (v/v); for inhibition at 10 µM: Homo sapiens, NCI-H2030. The protocol: as §1, §2, §3, §4, §5, §6, §7, §8, §9, §10
In a further assay the test system is H3255. Nature of the assay: Non Small Cell Lung Cancer proliferation assay (Alamar Blue reduction), H3255. The conditions noted are these: primary screening, 10 μM compound in 1% DMSO (v/v); for inhibition at 10 µM: Homo sapiens, NCI-H3255. On the procedure:
as §1, §2, §3, §4, §5, §6, §7, §8, §9, §10

The mark [1] stands for this setting: read-out: percentage inhibition H1650.
The mark [2] stands for this setting: read-out: percentage inhibition H1975.
Where [3] appears, read: read-out: percentage inhibition H2030.
The mark [4] stands for this setting: read-out: percentage inhibition H3255.
The mark [5] stands for this setting: H1650, read-out: PRIMARY HTS [%] H1650 (percentage inhibition).
[6] abbreviates: H1975, read-out: PRIMARY HTS [%] H1975 (percentage inhibition).
Setting [7] is: H2030, read-out: PRIMARY HTS [%] H2030 (percentage inhibition).
The mark [8] stands for this setting: H3255, read-out: PRIMARY HTS [%] H3255 (percentage inhibition).

For orientation: inhibition means the change of the read-out against control, counted positive when it falls. As for `O=C(COc1cnn(-c2ccccc2)c(=O)c1Cl)c1ccc(Br)cc1` [compound 176702], the inhibition at 10 µM was 29% in the assay with H1650 (setting [1]), 26% with H1975 (setting [2]), -14% in the assay on H2030 (setting [3]) and -21% in the assay on H3255 (setting [4]).

Consider `O=c1c(SCc2ccccc2Cl)c(SCc2ccccc2Cl)cnn1-c1ccccc1` [compound 208695], for which the inhibition at 10 µM is -14% in the assay on H1650 (setting [1]), -13% in the assay with H1975 (setting [2]), -11% with H2030 (setting [3]) and -2% in the assay with H3255 (setting [4]).

On to `O=c1c(SCc2ccc(Cl)cc2)c(SCc2ccccc2)cnn1-c1ccccc1` [compound 208704], for which the inhibition at 10 µM in the assay on H1650 (setting [1]) was -10%; in the assay on H1975 (setting [2]), -6%; in the assay with H2030 (setting [3]), -15%; in the assay on H3255 (setting [4]), -23%.

Take `O=c1c(N2CCCC2)c(Cl)cnn1-c1ccccc1` [compound 104304]: the inhibition at 10 µM in the assay with H1650 (setting [1]) was 52%; in the assay on H1975 (setting [2]), 98%; in the assay with H2030 (setting [3]), 14%; in the assay on H3255 (setting [4]) it was 107%.

`O=C(c1ccc([N+](=O)[O-])o1)N1CCOCC1` [compound 77953]: the inhibition at 10 µM with H1650 (setting [5]) was 12%; in the assay with H1975 (setting [6]), -1%; with H2030 (setting [7]) it was -6%; with H3255 (setting [8]) it was 0%.

`COc1cnn(-c2ccccc2)c(=O)c1S` [compound 187118]: the inhibition at 10 µM worked out at 101% in the assay on H1650 (setting [1]), 96% in the assay on H1975 (setting [2]), 7% in the assay on H2030 (setting [3]) and 108% in the assay on H3255 (setting [4]).

As to `CN1CCN(c2cnn(-c3ccc(Cl)cc3)c(=O)c2Cl)CC1` [compound 194618], the inhibition at 10 µM in the assay with H1650 (setting [1]) was -15%; in the assay on H1975 (setting [2]), -3%; with H2030 (setting [3]), -6%; in the assay with H3255 (setting [4]), -48%.

With `O=c1c(SCc2ccccc2)c(SCc2ccccc2)cnn1-c1ccc(Br)cc1` [compound 208699], the inhibition at 10 µM is -12% with H1650 (setting [1]), -22% in the assay with H1975 (setting [2]), 10% in the assay with H2030 (setting [3]) and 19% in the assay with H3255 (setting [4]).

For `O=C(Nc1ccc(N2CCN(Cc3ccccc3Cl)CC2)cc1)c1ccco1` [compound 92553], the inhibition at 10 µM was 2% with H1650 (setting [5]), -3% in the assay with H1975 (setting [6]), 5% with H2030 (setting [7]) and 1% in the assay on H3255 (setting [8]).

Consider `O=[N+]([O-])c1ccc(CN2CCN(c3ccccc3F)CC2)o1` [compound 100792], for which the inhibition at 10 µM in the assay with H1650 (setting [5]) was -5%; with H1975 (setting [6]), -9%; with H2030 (setting [7]) it was 43%; with H3255 (setting [8]) it was 1%.

Turning to `O=C(COCCOc1cnn(-c2ccccc2)c(=O)c1Cl)c1ccccc1` [compound 199760], the inhibition at 10 µM with H1650 (setting [1]) was 12%; in the assay on H1975 (setting [2]), -22%; in the assay on H2030 (setting [3]), 21%; in the assay with H3255 (setting [4]), 6%.

Consider `O=C(O)c1ccc(-n2ncc(Cl)c(Cl)c2=O)cc1` [compound 197940], for which the inhibition at 10 µM is 11% in the assay on H1650 (setting [1]), -6% in the assay on H1975 (setting [2]), 2% in the assay on H2030 (setting [3]) and -37% in the assay on H3255 (setting [4]).

For `CCSc1cnn(-c2ccccc2)c(=O)c1Cl` [compound 103997], the inhibition at 10 µM in the assay with H1650 (setting [1]) was -15%; in the assay on H1975 (setting [2]), 98%; in the assay on H2030 (setting [3]), 9%; with H3255 (setting [4]) it was 2%.

With `O=C(CSc1cnn(-c2ccccc2)c(=O)c1Cl)c1ccc(Br)cc1` [compound 183073], the inhibition at 10 µM was -3% with H1650 (setting [1]), -6% in the assay on H1975 (setting [2]), 8% with H2030 (setting [3]) and 30% with H3255 (setting [4]).

For `O=C(Nc1ccc(-c2ccc([N+](=O)[O-])cc2)cc1)c1ccco1` [compound 102031], the inhibition at 10 µM in the assay with H1650 (setting [5]) was -2%; with H1975 (setting [6]) it was -11%; in the assay on H2030 (setting [7]), -1%; in the assay with H3255 (setting [8]), 3%.

On to `Cc1c(C(=O)NN)nn(-c2ccccc2)c(=O)c1C#N` [compound 194841], for which the inhibition at 10 µM in the assay with H1650 (setting [1]) is -1%; in the assay with H1975 (setting [2]) it was -15%; with H2030 (setting [3]) it was -9%; in the assay on H3255 (setting [4]), -35%.

As for `Cc1ccc(C(=O)Nc2cc([N+](=O)[O-])ccc2C)o1` [compound 66776], the inhibition at 10 µM with H1650 (setting [5]) was 13%; with H1975 (setting [6]), 2%; in the assay on H2030 (setting [7]), -3%; in the assay on H3255 (setting [8]), 2%.

In the case of `N#Cc1ccccc1-n1nc(C(=O)c2cccs2)cc(-c2nc3ccccc3[nH]2)c1=N` [compound 186926], the “percentage inhibition H1650” value in the assay on H1650 is listed as 27%. The “percentage inhibition H1975” value in the assay on H1975 came out at 81%. Further, in the assay with H2030, the “percentage inhibition H2030” value amounted to 2%. For the same molecule, the “percentage inhibition H3255” value in the assay with H3255 was 52%.

As for `CCOc1c(Cl)cnn(-c2ccccc2)c1=O` [compound 104288], the inhibition at 10 µM in the assay with H1650 (setting [1]) is -13%; in the assay with H1975 (setting [2]), 102%; in the assay with H2030 (setting [3]), 66%; in the assay on H3255 (setting [4]), 46%.

Consider `O=C(COc1cnn(-c2ccccc2)c(=O)c1Cl)c1ccccc1` [compound 199759], for which the inhibition at 10 µM with H1650 (setting [1]) is 16%; in the assay on H1975 (setting [2]) it was 36%; in the assay on H2030 (setting [3]), 9%; in the assay with H3255 (setting [4]) it was 66%.

`O=c1c(SCc2ccc(Cl)cc2Cl)c(SCc2ccc(Cl)cc2Cl)cnn1-c1ccccc1` [compound 208619]: the inhibition at 10 µM is -4% in the assay on H1650 (setting [1]), 1% in the assay with H1975 (setting [2]), -12% in the assay on H2030 (setting [3]) and -19% in the assay with H3255 (setting [4]).

Regarding `O=c1c(Cl)c(Cl)cnn1-c1cccc(Cl)c1` [compound 104188], the inhibition at 10 µM in the assay with H1650 (setting [1]) was -13%; in the assay with H1975 (setting [2]), 102%; with H2030 (setting [3]) it was -4%; with H3255 (setting [4]) it was 4%.

Take `CCc1ccccc1NC(=O)c1ccc([N+](=O)[O-])o1` [compound 103960]: the inhibition at 10 µM with H1650 (setting [5]) stood at 62%; in the assay on H1975 (setting [6]), 41%; with H2030 (setting [7]) it was 73%; with H3255 (setting [8]), 68%.

Turning to `O=c1c(SCc2ccco2)c(SCc2ccco2)cnn1-c1ccccc1` [compound 195071], the inhibition at 10 µM was found to be 71% with H1650 (setting [1]), 77% in the assay with H1975 (setting [2]), 9% in the assay on H2030 (setting [3]) and 82% in the assay with H3255 (setting [4]).

For `O=c1c(SCc2ccc(Cl)cc2Cl)c(SC2CCCCO2)cnn1-c1ccccc1` (stereo not shown) [compound 224771], the inhibition at 10 µM was -12% in the assay on H1650 (setting [1]), -21% in the assay on H1975 (setting [2]), 3% in the assay with H2030 (setting [3]) and 30% in the assay with H3255 (setting [4]).

As to `CCOC(=O)N(CCOc1cnn(-c2ccccc2)c(=O)c1)C(=O)OCC` [compound 199761], the inhibition at 10 µM with H1650 (setting [1]) is -7%; with H1975 (setting [2]), -25%; in the assay with H2030 (setting [3]), 6%; in the assay on H3255 (setting [4]) it was 41%.

As for `O=c1c(SCc2ccccc2)c(Cl)cnn1-c1ccccc1` [compound 182827], the inhibition at 10 µM in the assay on H1650 (setting [1]) was -20%; in the assay on H1975 (setting [2]) it was 14%; with H2030 (setting [3]) it was -6%; with H3255 (setting [4]), -24%.

As for `CN(C)c1c(Cl)cnn(-c2ccccc2)c1=O` [compound 103911], the inhibition at 10 µM is -7% with H1650 (setting [1]), -12% in the assay with H1975 (setting [2]), -5% in the assay with H2030 (setting [3]) and -3% in the assay with H3255 (setting [4]).
